Consider 10 molecules from ChEMBL document CHEMBL1201862, “PubChem BioAssay data set” (2004).

Test systems include OVCAR-5; UO-31; SW-620; MDA-N; A498; MDA-MB-435; TK-10; ACHN; UACC-62; NCI-H23; IGROV-1; HCT-15; OVCAR-3; EKVX; HL-60; SR; OVCAR-4; SK-MEL-2; PC-3; K562.
What all share (assay): DTP human tumour cell line panel, 48 h

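1) Cells in 96-well plates. 2) Compound, 48 h, 5 concentrations. 3) Linear interpolation between surrounding doses. 4) Unreached endpoint = highest concentration. GI50: concentration for 50% inhibition of growth.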 Active and inactive are the calls of the source. No stated cut-off is given here; in the data, active = GI50 up to about 1.1 µM and inactive = higher.

Usually GI50 stands for the concentration that inhibits growth by half. With `CCOC(=O)NC`, the GI50 with OVCAR-5, in the assay with UO-31, in the assay on SW-620, in the assay on MDA-N, with A498 and with MDA-MB-435 was > 100 µM (inactive) each time. Moreover, the GI50 with TK-10 was > 100 µM (inactive); in the assay on ACHN it was > 100 µM (inactive); in the assay with UACC-62, > 100 µM (inactive); with NCI-H23, > 100 µM (inactive); in the assay with IGROV-1, > 100 µM (inactive); with HCT-15 it was more than 100 µM. In addition, the GI50 in the assay on OVCAR-3, in the assay on EKVX, in the assay with HL-60, in the assay with SR, with OVCAR-4 and in the assay with SK-MEL-2 was > 100 µM (inactive) throughout. In addition, the GI50 with PC-3 and in the assay on K562 was > 100 µM (inactive) in each case.
In the case of `Nc1nc(Cl)cc(NCC2(O)CC(CO)C2)n1` (stereo not given), the GI50 with OVCAR-5, in the assay with UO-31, in the assay with SW-620, with MDA-N, in the assay with A498 and in the assay with MDA-MB-435 was > 100 µM (inactive) in each case. For the same molecule, the GI50 in the assay on TK-10 was > 100 µM (inactive); in the assay with ACHN it was > 100 µM (inactive); in the assay on UACC-62, > 100 µM (inactive); with NCI-H23, > 100 µM (inactive); in the assay on IGROV-1, > 100 µM (inactive); with HCT-15, more than 100 µM. For the same molecule, the GI50 in the assay with OVCAR-3, in the assay on EKVX, in the assay with HL-60, in the assay with SR, in the assay on OVCAR-4 and in the assay with SK-MEL-2 was > 100 µM (inactive) throughout. Moreover, the GI50 in the assay on PC-3 and in the assay with K562 was > 100 µM (inactive) each time.
For `CC(C)C[C@H](NC(=O)[C@H](Cc1ccccc1)NC(=O)CCc1ccccc1)B(O)O`, the GI50 in the assay on OVCAR-5, in the assay on UO-31, in the assay on SW-620, in the assay with MDA-N, in the assay on A498 and in the assay on MDA-MB-435 was < 0.01 µM (active) throughout. For the same molecule, the GI50 in the assay on TK-10 was < 0.01 µM (active); with ACHN it was < 0.01 µM (active); in the assay on UACC-62, < 0.01 µM (active); in the assay with NCI-H23, < 0.01 µM (active); in the assay on IGROV-1, < 0.01 µM (active); in the assay with HCT-15, less than 0.01 µM. Further, the GI50 with OVCAR-3, in the assay on EKVX, in the assay with HL-60, in the assay on SR, with OVCAR-4 and with SK-MEL-2 was < 0.01 µM (active) throughout. Besides, the GI50 in the assay with PC-3 and in the assay on K562 was < 0.01 µM (active) throughout.
In the case of `COC1=C2CC(C)CC(OC)C(OC(=O)CCCN)C(C)/C=C(\C)C(OC(N)=O)C(OC)/C=C\C=C(/C)C(=O)NC(=CC1=O)C2=O` (stereo not given), the GI50 is 10.2 µM (inactive) in the assay with OVCAR-5; 10.5 µM (inactive) in the assay with UO-31; 0.873 µM (active) with SW-620; 4.33 µM (inactive) in the assay on MDA-N; 16.4 µM (inactive) in the assay on A498; 2.97 µM (inactive) with MDA-MB-435. Moreover, the GI50 in the assay with TK-10 is 7.16 µM (inactive); in the assay with ACHN, 5.4 µM (inactive); in the assay on UACC-62, 6 µM (inactive); in the assay with NCI-H23, 3.65 µM (inactive); with IGROV-1, 7.08 µM (inactive); in the assay with HCT-15 it was 4.97 µM. In addition, the GI50 is 3.2 µM (inactive) in the assay on OVCAR-3; 13.2 µM (inactive) in the assay on EKVX; 0.289 µM (active) in the assay on HL-60; 3.02 µM (inactive) in the assay with SR; 7 µM (inactive) in the assay on OVCAR-4; 12.1 µM (inactive) with SK-MEL-2. In addition, the GI50 is 9.2 µM (inactive) in the assay with PC-3 and 0.54 µM (active) in the assay with K562.
Regarding `CN(C)CCCC1c2ccccc2Oc2ccc(C(F)(F)F)cc21` (stereo not given), the GI50 was 14.9 µM (inactive) with OVCAR-5; 1.82 µM (inactive) in the assay on UO-31; 15.4 µM (inactive) in the assay with SW-620; 4.02 µM (inactive) in the assay with MDA-N; 10.8 µM (inactive) in the assay with A498; 6.64 µM (inactive) in the assay with MDA-MB-435. Further, the GI50 in the assay on TK-10 was 15.6 µM (inactive); in the assay with ACHN it was 16.7 µM (inactive); in the assay on UACC-62, 9.42 µM (inactive); with NCI-H23, 16 µM (inactive); in the assay on IGROV-1 it was 14 µM (inactive); in the assay with HCT-15 it was 16.1 µM. For the same molecule, the GI50 was 15.3 µM (inactive) with OVCAR-3; 15.9 µM (inactive) with EKVX; 12.1 µM (inactive) in the assay with HL-60; 7.28 µM (inactive) with SR; 14.5 µM (inactive) with OVCAR-4; 14.6 µM (inactive) in the assay with SK-MEL-2. For the same molecule, the GI50 with PC-3 is 13.7 µM (inactive); with K562 it was 5.9 µM (inactive).
Consider `Nc1cc(S(=O)(=O)O)cc2ccc(S(=O)(=O)O)cc12`, for which the GI50 in the assay on OVCAR-5, in the assay with UO-31, in the assay on SW-620, in the assay with MDA-N, with A498 and with MDA-MB-435 was > 100 µM (inactive) in each case. Further, the GI50 is > 100 µM (inactive) with TK-10; > 100 µM (inactive) with ACHN; > 100 µM (inactive) in the assay on UACC-62; > 100 µM (inactive) in the assay on NCI-H23; > 100 µM (inactive) with IGROV-1; more than 100 µM in the assay with HCT-15. Besides, the GI50 in the assay with OVCAR-3, with EKVX, in the assay with HL-60, in the assay on SR, with OVCAR-4 and with SK-MEL-2 was > 100 µM (inactive) throughout. Also, the GI50 in the assay with PC-3 and with K562 was > 100 µM (inactive) throughout.
For the molecule `Nc1c(Cl)ncnc1N[C@@H]1C[C@H]1CO`, the GI50 in the assay on OVCAR-5, in the assay with UO-31, in the assay on SW-620, with MDA-N, in the assay on A498 and in the assay on MDA-MB-435 was > 100 µM (inactive) each time. The GI50 is > 100 µM (inactive) in the assay on TK-10; > 100 µM (inactive) with ACHN; > 100 µM (inactive) in the assay with UACC-62; > 100 µM (inactive) in the assay with NCI-H23; > 100 µM (inactive) in the assay with IGROV-1; more than 100 µM in the assay with HCT-15. Moreover, the GI50 in the assay on OVCAR-3, in the assay with EKVX, in the assay on HL-60, in the assay with SR, in the assay with OVCAR-4 and with SK-MEL-2 was > 100 µM (inactive) throughout. The GI50 in the assay on PC-3 and in the assay on K562 was > 100 µM (inactive) in each case.
Turning to `CC1=CC(=O)c2c(O)cccc2C1=O` [PLUMBAGIN], the GI50 with OVCAR-5 is 1.94 µM (inactive); with UO-31 it was 1.61 µM (inactive); in the assay with SW-620, 1.91 µM (inactive); with MDA-N, 1.72 µM (inactive); with A498, 5.86 µM (inactive); in the assay on MDA-MB-435 it was 1.73 µM (inactive). Besides, the GI50 is 1.71 µM (inactive) with TK-10; 1.6 µM (inactive) with ACHN; 1.94 µM (inactive) in the assay with UACC-62; 1.81 µM (inactive) with NCI-H23; 1.78 µM (inactive) with IGROV-1; 1.7 µM in the assay on HCT-15. Further, the GI50 in the assay with OVCAR-3 was 1.03 µM (active); with EKVX, 1.6 µM (inactive); in the assay on HL-60 it was 0.152 µM (active); in the assay on SR, 1.69 µM (inactive); with OVCAR-4, 1.76 µM (inactive); in the assay with SK-MEL-2 it was 1.85 µM (inactive). Also, the GI50 was 2.21 µM (inactive) with PC-3 and 0.391 µM (active) in the assay with K562.
On to `CCO[C@@H]1CCC([S+]([O-])c2ccc(C)cc2)=CO1` (stereo not given in full), for which the GI50 in the assay on OVCAR-5, with UO-31, in the assay on SW-620, in the assay with MDA-N, in the assay on A498 and in the assay on MDA-MB-435 was > 100 µM (inactive) throughout. Moreover, the GI50 in the assay with TK-10 was > 100 µM (inactive); with ACHN, > 100 µM (inactive); in the assay with UACC-62, > 100 µM (inactive); in the assay with NCI-H23, > 100 µM (inactive); in the assay on IGROV-1, > 100 µM (inactive); in the assay with HCT-15 it was more than 100 µM. Besides, the GI50 in the assay on OVCAR-3 is > 100 µM (inactive); in the assay with EKVX, > 100 µM (inactive); in the assay with HL-60, 69.7 µM (inactive); in the assay on SR it was 60.7 µM (inactive); in the assay on OVCAR-4 it was > 100 µM (inactive); with SK-MEL-2, > 100 µM (inactive). For the same molecule, the GI50 in the assay on PC-3 and in the assay with K562 was > 100 µM (inactive) throughout.
Regarding `O=C(CCc1ccccc1)NCCc1ccc(O)c(O)c1`, the GI50 was > 31.6 µM (inactive) in the assay on OVCAR-5; 4.57 µM (inactive) in the assay with UO-31; > 100 µM (inactive) in the assay on SW-620; 14.8 µM (inactive) with MDA-N; 78.2 µM (inactive) with A498; 15.6 µM (inactive) in the assay on MDA-MB-435. The GI50 was > 100 µM (inactive) in the assay with TK-10; 14.2 µM (inactive) in the assay with ACHN; 34.3 µM (inactive) in the assay with UACC-62; 32.4 µM (inactive) in the assay on NCI-H23; 23.5 µM (inactive) in the assay on IGROV-1; 31.3 µM with HCT-15. In addition, the GI50 in the assay with OVCAR-3 is 22.2 µM (inactive); in the assay on EKVX, 62.4 µM (inactive); in the assay with HL-60 it was 3.43 µM (inactive); in the assay on SR it was 4.01 µM (inactive); in the assay with OVCAR-4, 10.4 µM (inactive); in the assay on SK-MEL-2, 22 µM (inactive). Moreover, the results for the GI50 in the assay on PC-3 and with K562 were > 42.1 µM (inactive) and 7.11 µM (inactive), respectively.
